What was measured:
Assay in all cases: apparent steady-state kinetics of F420H2-dependent alkene reduction
MSMEG_2850 [1] = target: T1, MSMEG_2850 (Mycolicibacterium smegmatis, UniProt A0QW82); conditions: co-substrate F420H2; apparent value
T1 sequence (A0QW82 1-140): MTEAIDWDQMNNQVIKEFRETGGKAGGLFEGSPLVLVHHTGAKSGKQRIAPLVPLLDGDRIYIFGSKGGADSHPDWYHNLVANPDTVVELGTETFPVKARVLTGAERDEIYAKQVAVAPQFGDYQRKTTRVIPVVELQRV

MSMEG_2850 [2] = target: T1, MSMEG_2850; assay type: biochemical; conditions: substrate inhibition constant; co-substrate F420H2
MSMEG_2027 = target: T2, MSMEG_2027 (Mycolicibacterium smegmatis, UniProt A0QU01); assay type: biochemical; conditions: substrate inhibition constant; co-substrate F420H2
T2 sequence (A0QU01 1-140): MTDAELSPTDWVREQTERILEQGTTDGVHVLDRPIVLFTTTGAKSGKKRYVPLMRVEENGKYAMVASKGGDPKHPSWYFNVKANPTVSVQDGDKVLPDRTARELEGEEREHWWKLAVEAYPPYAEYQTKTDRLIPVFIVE

Row | Km (MSMEG_2850 [1]) [µM] | Ki (MSMEG_2850 [2]) [mM] | Ki (MSMEG_2027) [mM] | SMILES
1 | 180 ± 30 |  |  | CC1=CC(=O)[C@H]2C[C@@H]1C2(C)C [9a, (1S,5S)-(-)-verbenone]
2 |  | 47.9 ± 10.0 | 26.9 ± 11.4 | CC1=CC(=O)CC(C)(C)C1=O [7a, ketoisophorone]

From doi:10.1101/2023.02.21.529347v1 (biorxiv, 2023)
